Laboratory results taken from BigSolDB 2.1.

Compound: O=C(O)c1ccccc1O
- solubility (mole fraction) (in acetone, 298.2 K): 0.137
- solubility (mole fraction) (in acetone, 308.2 K): 0.139
- solubility (mole fraction) (in acetone, 318.2 K): 0.156
- solubility (mole fraction) (in acetone, 328.2 K): 0.196
- solubility (mole fraction) (in isopropanol, 298.2 K): 0.144
- solubility (mole fraction) (in isopropanol, 308.2 K): 0.161
- solubility (mole fraction) (in isopropanol, 318.2 K): 0.173
- solubility (mole fraction) (in isopropanol, 328.2 K): 0.195
- solubility (mole fraction) (in isopropanol, 338.2 K): 0.214
- solubility (mole fraction) (in n-propanol, 298.2 K): 0.132
- solubility (mole fraction) (in n-propanol, 308.2 K): 0.15
- solubility (mole fraction) (in n-propanol, 318.2 K): 0.163
- solubility (mole fraction) (in n-propanol, 328.2 K): 0.179
- solubility (mole fraction) (in n-propanol, 338.2 K): 0.195
- solubility (mole fraction) (in water, 298.2 K): 0.000295
- solubility (mole fraction) (in water, 308.2 K): 0.000355
- solubility (mole fraction) (in water, 318.2 K): 0.000507
- solubility (mole fraction) (in water, 328.2 K): 0.000699
- solubility (mole fraction) (in water, 338.2 K): 0.000944
